Reference: PMC8740726 (Proceedings of the National Academy of Sciences of the …, 2021)

Tests used:
[1] = target: T1, DPS (deoxypodophyllotoxin synthase) (Sinopodophyllum hexandrum, UniProt A0A0N9HQ36); settings: co-substrate; Fe bound, bidentate, offline mode; pH 8.5
[2] = target: T1, DPS (deoxypodophyllotoxin synthase); settings: coproduct at Fe active site, with Fe and (±)-yatein; pH 7.5

T1 sequence (A0A0N9HQ36 whole entry): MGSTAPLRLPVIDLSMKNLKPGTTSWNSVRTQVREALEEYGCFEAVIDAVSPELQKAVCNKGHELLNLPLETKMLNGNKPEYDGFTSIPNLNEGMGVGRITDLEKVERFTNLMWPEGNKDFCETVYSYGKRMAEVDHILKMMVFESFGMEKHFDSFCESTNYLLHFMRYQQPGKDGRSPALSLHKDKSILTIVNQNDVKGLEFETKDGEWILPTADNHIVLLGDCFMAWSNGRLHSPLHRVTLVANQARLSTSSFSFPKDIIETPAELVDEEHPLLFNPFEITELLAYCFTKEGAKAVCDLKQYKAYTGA

SMILES	X-ray crystal structure, 2.09 A [1]	X-ray crystal structure, 2.05 A [2]
O=C(O)CCC(=O)C(=O)O [2OG]	Overall structure of the DPS•Fe•2OG ternary complex (Protein Data Bank identification: 7E37)	
O=C(O)CCC(=O)O [succinate]		The substrate (−)-6a and the coproduct succinate are shown in stick representation
